In patent US6914064B2, “1,4-Disubstituted piperazine derivatives useful as uro-selective α1-adrenoceptor blockers” (Ranbaxy Laboratories Limited, priority 2000, dated 2005):

What was measured:
α1D adrenoceptor (aorta) = target: T1, α1D adrenoceptor (aorta) (Rattus norvegicus, UniProt P23944); assay: In vitro functional study, antagonism of norepinephrine-induced contraction of aorta; format: biochemical; settings: tested compound at 0.1, 1 and 10 mM, read-out: α Adrenoceptor Subtype (pKB) α1D (converted)
T1 construct: Isolated tissues were mounted in organ bath containing Krebs Henseleit buffer; from tissue; host or cells: isolated aorta of male wistar rats
T1 sequence (P23944 1-561): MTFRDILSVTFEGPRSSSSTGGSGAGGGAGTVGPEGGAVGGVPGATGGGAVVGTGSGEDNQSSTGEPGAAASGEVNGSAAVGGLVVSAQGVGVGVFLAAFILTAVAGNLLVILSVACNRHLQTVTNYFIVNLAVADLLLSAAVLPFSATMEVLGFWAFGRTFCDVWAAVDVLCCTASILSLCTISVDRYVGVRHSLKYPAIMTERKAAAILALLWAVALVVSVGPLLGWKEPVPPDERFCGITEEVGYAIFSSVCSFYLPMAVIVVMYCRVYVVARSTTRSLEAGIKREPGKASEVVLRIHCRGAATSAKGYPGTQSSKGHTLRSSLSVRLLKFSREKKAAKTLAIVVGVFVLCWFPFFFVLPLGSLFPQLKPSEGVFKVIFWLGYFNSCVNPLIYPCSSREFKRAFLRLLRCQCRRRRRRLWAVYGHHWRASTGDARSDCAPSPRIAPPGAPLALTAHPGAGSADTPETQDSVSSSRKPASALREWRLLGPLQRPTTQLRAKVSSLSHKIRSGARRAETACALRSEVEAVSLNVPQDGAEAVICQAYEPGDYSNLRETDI
Text: In order to study selectivity of action of these compounds towards different α-adrenoceptor subtypes, the ability of these compounds to antagonise α1-adrenoceptor agonist induced contractile response on aorta (α1Dprostate (α1A and spleen (α1B was studied. Aorta and spleen tissues were isolated from urethane anaesthetised (1.5 gm/kg) male wistar rats. Isolated tissues were mounted in organ bath containing Krebs Henseleit buffer of following composition (mM): NaCl 118; KCl 4.7; CaCl2 2.5; MgSO4. 7H2O 1.2; NaHCO3 25; KH2PO41.2; glucose 11.5. Buffer was maintained at 37° C. and aereated with a mixture of 95% O2 and 5% CO2. A resting tension of 2 g (aorta) or 1 g (spleen and prostate)was applied to tissues. Contractile response was monitored using a force displacement transducer and recorded on chart recorders. Tissues were allowed to equilibrate for 2 hours. At the end of equilibration period, concentration response curves to norepinephrine (aorta) and phenylepinephrine (spleen and prostate) were obtained in absence and presence of tested compound (at concentration of 0.1,1 and 10 mM). Antagonist affinity was calculated and expressed as pKB vales in Table II.

α1A adrenoceptor = target: T2, α1A adrenoceptor (Rattus norvegicus, UniProt P43140); assay: Receptor binding assay, displacement of [3H]prazosin, rat submaxillary membranes; settings: for Ki: [3H]prazosin displacement, rat submaxillary membranes, read-out: α1A (Rat submaxillary) Ki; for Selectivity α1B/α1A: ratio of Ki α1B (rat liver) / α1A (rat submaxillary)
T2 construct: from tissue; host or cells: rat submaxillary gland membranes
T2 sequence (P43140 1-466): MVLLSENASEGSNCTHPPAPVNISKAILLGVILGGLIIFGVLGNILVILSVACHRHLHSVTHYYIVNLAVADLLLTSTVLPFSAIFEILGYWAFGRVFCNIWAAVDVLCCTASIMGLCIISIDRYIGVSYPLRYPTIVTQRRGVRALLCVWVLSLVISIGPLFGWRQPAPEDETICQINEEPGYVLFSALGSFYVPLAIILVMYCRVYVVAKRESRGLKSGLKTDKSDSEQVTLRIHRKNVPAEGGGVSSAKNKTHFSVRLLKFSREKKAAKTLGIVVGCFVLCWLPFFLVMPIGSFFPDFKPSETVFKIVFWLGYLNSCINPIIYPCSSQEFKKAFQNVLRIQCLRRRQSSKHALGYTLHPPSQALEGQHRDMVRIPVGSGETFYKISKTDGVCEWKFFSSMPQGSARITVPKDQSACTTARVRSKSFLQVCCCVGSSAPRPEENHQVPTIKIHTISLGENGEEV
In short: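 Rat submaxillary gland membranes (150-250 μg protein) incubated 1 h at 24-25° C in Tris HCl 50 mM, EDTA 5 mM, pH 7.4. Non-specific binding set with 300 nM prazosin; filtration then counting of bound radioactivity. IC50 and Kd from non-linear curve fitting.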

[1] = test system: phenylephrine response on mean arterial pressure (MAP) and intraurethral pressure (IUP); assay: In vivo uroselectivity study in conscious beagle dogs; settings: for Area Under Curve IUP / Area Under Curve MAP: percent change of phenylephrine (16 μg/kg i.v.) response, 0.5-24 hours
Text: In order to assess the uroselectivity in vivo, the effects of these compounds were studied on mean arterial pressure (MAP) and intraurethral pressure (IUP) in conscious beagle dogs as per the method of Brune et. al. (Pharmacol 1996, 53:356-368). Briefly, male dogs were instrumented for chronic continuous measurement of arterial blood pressure by implanting a telemetry transmitter (TL11M2-D70-PCT, Data Sci. International, St. Paul, Minn. USA) into the femoral artery, two weeks prior to the study. During the recovery period, the animal was acclimatized to stay in the sling restraint. On the day of testing, overnight fasted animal was placed in the sling restraint. A Swan-Ganz. Balloon tipped catheter was introduced into the urethra at the level of prostate and the balloon was inflated (Brune. et. al. 1996). After recording the base line readings, effect of 16 μg/kg, phenylephrine (i.v.) on MAP and IUP was recorded. The response of phenylephrine to MAP and IUP were recorded at 0.5, 1, 2, 3, 4, 6, 9 and 24 hours after the oral administration of vehicle or the test drug. The changes in MAP was recorded on line using Dataquest Software (Data Sci. International. St. Paul, Minn. USA) and IUP was recorded on a Grass Polygraph (Model 7, Grass Instruments, USA). The change in phenylephrine response on MAP and IUP administration after the test drug administration was calculated as percent change of that of control values. Area under curve was calculated and the ratio of the values for MAP and IUP was used for calculating the uroselectivity (Table III)

In the case of COc1ccccc1N1CCN(CCCN2C(=O)C3CC=CCC3C2=O)CC1.Cl (stereo not shown) [Compound 01, 2-[3-{4-(2-Methoxyphenyl)piperazin-1-yl}propyl]-3a,4,7,7a-tetrahydro-1H-isoindole-1,3(2H)-dione hydrochloride], the Kb (α1D adrenoceptor (aorta)) is reported as 2.29 nM, the melting point is reported as 184 to 185 °C and the Ki (α1A adrenoceptor) is reported as 0.8 nM. The “Selectivity α1B/α1A” value (α1A adrenoceptor) was 91, the “Uroselectivity Ratio IUP/MAP” value ([1]; 100 μg/kg p.o.) was 5.54 and the “Area Under Curve IUP” value ([1]; 100 μg/kg p.o.) was 514. For the same compound, the “Area Under Curve MAP” value ([1]; 100 μg/kg p.o.) was 93.
For CCOc1ccccc1N1CCN(CCCN2C(=O)C3CC=CCC3C2=O)CC1.Cl (stereo not shown) [Compound 11, 2-[3-{4-(2-Ethoxyphenyl)piperazin-1-yl}propyl]-3a,4,7,7a-tetrahydro-1H-isoindole-1,3(2H)-dione hydrochloride], the Kb (α1D adrenoceptor (aorta)) was 1.74 nM, the melting point was 221.9 to 222.7 °C and the Ki (α1A adrenoceptor) was 0.13 nM. For the same compound, the “Selectivity α1B/α1A” value (α1A adrenoceptor) was 146, the “Uroselectivity Ratio IUP/MAP” value ([1]; 10 μg/kg p.o.) was 66 and the “Area Under Curve IUP” value ([1]; 10 μg/kg p.o.) was 661. For the same compound, the “Area Under Curve MAP” value ([1]; 10 μg/kg p.o.) was 10.
With CC(C)Oc1ccccc1N1CCN(CCCN2C(=O)C3CC=CCC3C2=O)CC1.Cl (stereo not shown) [Compound 23, 2-[3-{4-(2-Isopropoxyphenyl)piperazin-1-yl}propyl]-3a,4,7,7a-tetrahydro-1H-isoindole-1,3(2H)-dione hydrochloride] the Kb (α1D adrenoceptor (aorta)) was 0.123 nM, the melting point was 223 to 224 °C and the Ki (α1A adrenoceptor) was 0.16 nM. For the same compound, the “Selectivity α1B/α1A” value (α1A adrenoceptor) was 175, the “Uroselectivity Ratio IUP/MAP” value ([1]; 3 μg/kg p.o.) was 4 and the “Area Under Curve IUP” value ([1]; 3 μg/kg p.o.) was 790. For the same compound, the “Area Under Curve MAP” value ([1]; 3 μg/kg p.o.) was 197.
With CCCOc1ccccc1N1CCN(CCCN2C(=O)C3CC=CCC3C2=O)CC1.Cl (stereo not shown) [Compound 24, 2-[3-{4-(2-Propoxyphenyl)piperazin-1-yl}propyl]-3a,4,7,7a-tetrahydro-1H-isoindole-1,3(2H)-dione hydrochloride] the Kb (α1D adrenoceptor (aorta)) was 0.537 nM, the melting point was 193 to 194 °C and the Ki (α1A adrenoceptor) was 0.24 nM. The “Selectivity α1B/α1A” value (α1A adrenoceptor) was 117, the “Uroselectivity Ratio IUP/MAP” value ([1]; 3 μg/kg p.o.) was 7.6 and the “Area Under Curve IUP” value ([1]; 3 μg/kg p.o.) was 522. The “Area Under Curve MAP” value ([1]; 3 μg/kg p.o.) was 68.
